Measurements published in patent publication US10898542B2, “Topical compositions comprising OB-fold variants” (AFFILOGIC, priority 2013, dated 2021).

Tests used:
[1] = Franz cell diffusion test, penetration through human skin ex vivo; assay type: in vitro ADME; details: human skin 1 mm, 100 μl at 5 mg/ml, 24 h, PBS pH 7.4 receiver, 2 cm^2
From the text: The test used is the Franz cell diffusion test.
Franz cells are used to determine, ex vivo, the skin penetration of exogenous substances, and to actually measure the speed of passage through the various layers of the skin barrier of the molecules constituting the active ingredient deposited at the surface of the skin.
A solution containing the molecule to be studied is deposited in a “donor” department of the device. The molecule then diffuses through a membrane (in the case in point the skin) and is collected in a “receiver” compartment.
In practice, after having removed the hypodermal layer (adipose tissue), the skin fragment is deposited on a diffusion cell, called a Franz cell. The deep face of the dermis is in contact with a receiver solution which is supposed to replace the interstitial fluid of the skin. A solution containing the molecule studied is deposited on top of the skin. […]
The nanofitin concentration was measured on each of the samples taken, using the BioLayer Interferometry technology which makes it possible to measure the interaction between two proteins. In the case in point, the nanofitin content is measured by the recognition of a poly-Histidine tag which is coupled to said nanofitins beforehand.

[2] = test system: skin inflammation similar to psoriasis caused by imiquimod (Aldara); experiment: Imiquimod-induced psoriasis-type ear inflammation, topical treatment, PASI score; assay type: in vivo, Balb/c mice; details: cream on right ear; mice licked their ears, systemic effect after ingestion very probable
Protocol: In order to verify the skin penetration of nanofitins and the preservation of their properties, in particular their property of neutralizing the receptor-ligand relationship, inflammation models of psoriasis type were used and the reduction in inflammation (PASI score) after topical administration of anti-inflammatory nanofitins directly to the skin was measured.
These nanofitins target two different cytokines involved in psoriasiform inflammation, but with different localizations, from the basal layers of the dermis just into the epidermis (Nestle et al., Nature Reviews Immunology 9, 679-691, 2009). The nanofitins in question neutralize the binding of the targeted cytokines with their receptor. In order to inhibit the action of these cytokines during inflammation of psoriasis type, it is necessary to reach the layers where they are located, either systemically as therapeutic antibodies do, or topically via the skin. The measurement of an anti-inflammatory effect by topical administration of nanofitins thus attests to penetration of the nanofitins through the skin and to an associated therapeutic efficacy.
The local application of imiquimod (Aldara) to the internal face of the ears of mice causes a skin inflammation similar to psoriasis (Van der Fits et al., J Immunol. 2009 May 1; 182(9):5836-45, Flutter et al., Eur J Immunol. 2013 December; 43(12):3138-46). […]

[3] = Penetration through rabbit cornea in reaction chambers; assay type: in vitro ADME; details: male, Fauve de Bourgogne, 37° C., sampling 0 h, 2 h and 4 h, 0.5 cm^2, read-out: apparent permeability
Protocol: Three male rabbits (Fauve de Bourgogne) were used.
The principle is the same as for the skin permeability.
3 ml of formulation containing each nanofitin were placed on the donor side of the reaction chambers and 3 ml of PBS were placed on the receiver side. Freshly taken corneal tissues were placed between the two half-chambers.
The temperature was maintained at 37° C. throughout the study and the oxygenation was provided by continuous perfusion of carbogen (95% O2, 5% CO2). The exchange surface area was 0.5 cm^2.
At each following sampling period: 0 h, 2 h and 4 h, 500 μl of liquid were taken from the receiver side and replaced with PBS. • 100 μl of liquid were taken from the donor side and were not replaced.
At the end of the sampling period, the 0.5 cm^2 of corneas were removed from the reaction chamber and scraped with a scalpel. 1 ml of PBS was added to the samples, which were homogenized.

Cn1c(=O)c2c(ncn2C)n(C)c1=O [caffeine]
percentage found on the receiver side (skin permeability) [1]: ~10%

C[C@H]1C[C@H]2[C@@H]3CCC4=CC(=O)C=C[C@]4(C)[C@@]3(F)[C@@H](O)C[C@]2(C)[C@@]1(O)C(=O)CCl [clobetazole]
inflammation on the nontreated left ear [2]: reduction in the inflammation on the nontreated left ear

CCn1cc(C(=O)O)c(=O)c2cc(F)c(N3CCNCC3)cc21 [norfloxacin]
Papp at 4 h [3]: 11 ×10⁻⁶ cm/s
